Here are results for twelve molecules from US5283243A, “Piperidinoalkylbenzoxazine and piperidinoalkylbenzothiazine compounds, and medicaments containing them” (Kali-Chemie Pharma GmbH, priority 1990, dated 1994).

Data set [1] deals with 5-lipoxygenase (LTC4 release). In words: 5-Lipoxygenase inhibition: LTC4 release from zymosan-stimulated mouse peritoneal macrophage cells. The format is cell-based. The conditions noted are these: Peritoneal macrophage cell; zymosan-stimulated mouse peritoneal macrophage cells, 10^-5 mole/l; read-out: In vitro % inhibition upon release of LTC4. An excerpt: (§1) 5. In vitro Determination of Cyclooxygenase Inhibition and 5-Lipoxygenase Inhibition
(§2) After a cell is activated, arachidonic acid contained in cell membranes is metabolized in two ways. Leucotrienes, inter alia leucotriene C4, are formed due to the action of the enzyme 5-lipoxyqenase (=5-LO), and prostanoids are formed due to the action of the enzyme cyclooxygenase (=CO). In in vitro systems these metabolites are secreted from the cell.
(§3) To evaluate the cyclooxygenase-inhibiting and 5-lipoxygenase-inhibiting properties of the test substances, their inhibitory activity on the biosynthesis of the arachidonic acid derivatives leucotriene C4 (=LTC4) and 6-keto-prostaglandin F1α (=6-keto-PGF1 α) was determined in vitro on mouse peritoneal macrophage cells. For this purpose the LTC4 and 6-keto-PGF1 α contents of a mouse peritoneal macrophage cell culture medium were determined by zymosan stimulation as described by Scott et al. (J. Exp. Med. 152 (1980), 324-335) and by Fradin et al., (Prostaglandins, 33 (1987), 579-589).
(§4) A cell suspension containing peritoneal cells from male mice 8-10 weeks old was obtained in a known manner. A solution marketed under the designation RPMI 1640 (Manufactured by Gibco) was used as the cell culture medium, to which heparin (10 international units/ml) and antibiotics were added according to the procedure of Bonney et al. (Biochem. J. 176 (1978) 422-433). The cell suspension was adjusted to a cell concentration of 10^6 cells per ml and distributed uniformly on titer dishes containing 24 1-ml titer cells (wells). These were kept for two hours in a humidified incubator filled with air enriched with 7% CO2. Cells not adhering to the titer well walls were then removed by washing. The remaining macrophage cells adhering to the walls were incubated for about 12 hours in a suspension medium to which 0.1% of bovine serum albumin (BSA=Bovine Serum Albumin) was added. The suspension medium was then replaced by a Hanks salt solution (=Hanks Balanced Salt Solution=HBSS) with 10 mmoles of Hepes (=hydroxyethylpiperazinoethanesulfonic acid) to which a 0.1% strength solution of the test substances in aqueous, 1% strength dimethylformamide or only the solvent had been added. After 15 minutes the arachidonic acid metabolism was stimulated by adding […] of zymosan (=glycoprotein mixture isolated from cell walls of beer yeast, Saccharomyces cerevisiae, Manufactured by Sigma Chemical Co., Munich) per titre cell. After 2 hours samples of the respective supernatant liquid in each cell were examined for their 6-keto-PGF1α and LTC4 contents by an enzyme immunoassay (=EIA). This EIA is carried out following the method of Pradelles et al. (Analytical Chem. 57 (1985), 1170-1173). The determination of LTC4 and the determination of 6-keto-PGF1α were each carried out on suitable dilutions of the samples (1:50 to 1:250 for the LTC4 determination and 1:250 to 1:1,250 for the 6-keto-PGF1α determination) in comparison with a comparative scale. To determine the inhibiting effect of a 10^-5 molar concentration of the compounds, the amounts of reference eicosanoid were determined, and the inhibiting effect was calculated therefrom in % inhibition compared to the measurements of the zymosan controls.

The subject of data set [2] is cyclooxygenase (6-keto-PGF1α release). In words: Cyclooxygenase inhibition: 6-keto-PGF1α release from zymosan-stimulated mouse peritoneal macrophage cells. In kind it is cell-based. The following applies: Peritoneal macrophage cell; zymosan-stimulated mouse peritoneal macrophage cells, 10^-5 mole/l; read-out: In vitro % inhibition upon release of 6-keto-PGF1α.
Excerpt: as §1, §2, §3, §4

A further data set has as its system mice. Kind of data set: Determination of minimum toxic dose. The format is in vivo. The conditions noted are these: mouse, per os; lowest dose producing death or severe toxic symptoms, maximum dose 300 mg/kg, 24 hours. How it is done: 2. Determination of Minimum Toxic Dose
Maximum doses of 300 mg/kg of the test substance were administered orally to male mice weighing 20-25 g. The animals were observed carefully for 3 hours for toxicity symptoms. In addition, all symptoms and deaths were recorded over a period of 24 hours after administration. Associated symptoms were also observed and recorded. If death or severe toxic symptoms were observed, additional mice were administered increasingly lower doses. The lowest dose which produced death or severe toxic symptoms is given in the following Table B as the minimum toxic dose.

Another data set concerns the target T1, histamine-(H1)-receptor (Cavia porcellus, UniProt P31389).
T1 construct: Segments of the ileum 1.5 cm long from Dunkin Hartley guinea pigs; from tissue; host or cells: isolated ileum segments of Dunkin Hartley guinea pigs
In words: Anti-histamine-(H1) effect, inhibition of histamine-induced contraction of isolated guinea pig ileum in vitro. The format is cell-based, Dunkin Hartley guinea pigs. The conditions noted are these: histamine 5 × 10^-6 mole/l, test substance 10^-6 mole/l. How it is done:
3. Investigation of Anti-Histamine-(H1) Effect Based on Histamine-(H1)-Receptor Antagonism In Vitro
To investigate the histamine-(H1)-receptor antagonism of the test substances, the inhibiting effect of the substances on histamine-induced contractions of the smooth muscle was determined in vitro on the isolated organ. Isolated strips of organ from the ileum are suitable for this purpose. In an organ bath of physiological saline solution the smooth muscle strips react to the addition of histamine by contracting. […] The extent of regression of the contraction is an indication of the anti-histamine-(H1) activity of the compounds. The investigation was carried out analogously to the method originally described by Magnus (Pfluegers Arch. 102, 123 (1904)). Procedure for determining the smooth muscle contraction inhibiting effect on isolated guinea pig ileum induced by a 5×10^-6 molar histamine concentration.
Segments of the ileum 1.5 cm long from Dunkin Hartley guinea pigs having a body weight of 300 500 g were used for the test. Each strip was placed in an organ bath of 10 ml of physiological saline solution according to Krebs-Henseleit and attached to a conventional apparatus for isotonic measurement of changes in length of the ileum strips (automated Celaster measuring apparatus), so that the tissue was under 1 g of tension. The bath was kept at a pH of 7.4 and gassed with a mixture of 5% CO2 and 95% 02. After an equilibration phase, an isotonic contraction of the tissue was induced by adding histamine in a final concentration of 5×10^-6 mole/liter and washing it out again after a contact time of 30 seconds. Only tissues samples from which three reproducible contractions were obtained at 10 minute intervals were used in the subsequent test. The test substances were then added in a final concentration of 10^-6 mole/liter, and after 30 seconds contact time histamine was again added up to a concentration of 5×10^-6 mole/liter. The resulting contractions were measured over 30 seconds. The tissue was then washed several times over a period of 10 minutes. Histamine was then added again to stimulate a contraction. The resulting contractions were again measured over 30 seconds. The difference between the amplitude of the contraction obtained by histamine addition alone and the amplitude of the contraction obtained in the presence of the test substance was determined and expressed in terms of % inhibition.
The inhibiting effects on the contractions induced by histamine 30 seconds after administration of the test substance and on the contractions induced by the addition of histamine 10 minutes later are listed in the table.

For data set [3], the system named is Histamine-induced anaphylactoid reaction. In words: Inhibition of histamine-induced anaphylactoid cutaneous reaction. The format is in vivo, Sprague-Dawley rats. The conditions noted are these: Rattus norvegicus, 1 h, read-out: % inhibition of Histamine-induced anaphylactoid reaction. How it is done:
(§5) 1. Determining Inhibition of Passive Cutaneous Anaphylaxis (PCA) and Histamine-Induced Anaphylactoid Cutaneous Reaction
(§6) The inhibition of the passive cutaneous anaphylaxis and of the anaphylactoid cutaneous reaction induced by histamine was determined as follows:
To determine the histamine-induced anaphylactoid skin reaction, the animals are injected intradermally in the flank opposite to the antiserum administration with 50 μl of a physiological saline solution containing 0.8 mg/ml histamine directly before the intravenous injection of the solution containing the ovalbumin and the blue dye.
(§7) On the day of the experiment the test substances were dissolved in distilled water which contained 1 vol. % dimethylformamide and 1 vol. % of Tween™ 20 (=polyoxyethylene (20) sorbitan monolaurate). One hour before administration of the ovalbumin challenge, each animal was orally administered 2×10^-5 mole/kg of test substance in 0.5 ml of solution. For comparison purposes a control group received only the solvent.
(§8) The edematous anaphylactic (PCA) and anaphylactoid (histamine-induced) reactions caused by the stimulation of the intravenous ovalbumin injection, which manifested themselves by edema formation, swelling and exudation of blue dye, were evaluated 30 minutes after their initiation by the intravenous ovalbumin injection. This was done by visually determining the extent to which the blue dye emerged at the sites of edema formation. The percentage inhibition of anaphylactic and anaphylactoid reactions induced by the test substances in comparison with the reactions of the control animals not treated with any test substance was determined using comparison scales.
(§9) The results obtained using compounds of formula I according to the foregoing test methods are shown in the following Table A. The example numbers given for the compounds of formula I relate to the subsequent preparative examples.

Data set [4] deals with Passive cutaneous anaphylaxis (PCA). Kind of data set: Inhibition of passive cutaneous anaphylaxis (PCA). The format is in vivo, Sprague-Dawley rats. The conditions noted are these: Rattus norvegicus, 1 h, read-out: % inhibition of Passive cutaneous anaphylaxis (PCA). How it is done:
as §5
The PCA reaction is carried out following the methods described by Goose et al. (J.N. Immunology 16 (1969), 749) and by Martin et al. (Arch. Pharmacol. 316 (1981), 186).
The IgE-rich ovalbumin antiserum used in the test was obtained from immunized Brown-Norway rats. The were immunized with an intraperitoneal injection of a mixture of 100 μg of ovalbumin with a Bordetella pertussis suspension (Vaxicoq™, Manufactured by Institute Merieux, containing 5×10^9 organisms and 1.25 mg Al(OH)3). After 20 days the animals were re-immunized with a further intraperitoneal injection of a solution of 10 μg ovalbumin in 0.5 ml physiological saline solution. After a further four days the blood was removed from the animals and centrifuged. The resulting antiserum was stored at -20° C. until use.
as §6
Sprague-Dawley rats having a body weight of 150-180 g were injected intradermally in one flank with 50 μl of a 1:75 dilution of the IgE-rich ovalbumin antiserum in physiological saline solution to passively sensitize them to ovalbumin.
24 hours after sensitization a solution of 8.25 mg/kg of ovalbumin and 26.4 mg/kg of a blue dye (Evans's Blue) was administered to the rats intravenously according to Martin et al. to trigger passive cutaneous anaphylaxis.
as §7, §8, §9

Setting [5] is: rats, 2 × 10^-5 mole/kg dose per os, one hour before challenge.
Where [6] appears, read: rats, 2 × 10^-5 mole/kg dose per os, one hour before ovalbumin challenge.

Where two headings read alike, the source gives them in different places. Where only a bound is given, the exact number is not on record here.

T1 sequence (P31389 whole entry): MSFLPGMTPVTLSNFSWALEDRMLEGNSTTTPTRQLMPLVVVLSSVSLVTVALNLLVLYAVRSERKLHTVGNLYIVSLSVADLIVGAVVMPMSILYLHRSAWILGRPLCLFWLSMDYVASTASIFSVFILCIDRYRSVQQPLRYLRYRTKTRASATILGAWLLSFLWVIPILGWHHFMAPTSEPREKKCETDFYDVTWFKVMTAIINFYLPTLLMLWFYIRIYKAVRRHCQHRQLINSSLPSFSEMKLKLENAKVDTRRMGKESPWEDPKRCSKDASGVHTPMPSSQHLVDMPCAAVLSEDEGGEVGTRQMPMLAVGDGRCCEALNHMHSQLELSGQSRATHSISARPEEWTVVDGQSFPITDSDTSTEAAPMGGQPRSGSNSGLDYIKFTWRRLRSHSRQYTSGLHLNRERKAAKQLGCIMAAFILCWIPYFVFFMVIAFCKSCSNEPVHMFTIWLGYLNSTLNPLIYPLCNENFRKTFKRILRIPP

Consider `O=C1Nc2ccccc2OC1CCCN1CCC(Cc2ccccc2)CC1` (stereo not drawn) [Example 2, 2-[3-(4-benzylpiperidin-1-yl)-propyl]-2H-1,4-benzoxazine-3(4H)-one], for which the inhibition at 10 µM in data set [1] was determined as 54%; in data set [2] it was 13%.

With `O=C1Nc2ccccc2SC1N1CCC(Cc2ccccc2)CC1` (stereo not drawn) [Example 16], the inhibition at 10 µM in data set [1] was determined as 97%; in data set [2] it was 70%. Besides, the Minimum toxic dose in the data set with mice is reported as over 300 mg/kg.

In the case of `O=C1Nc2ccccc2OC1CCCCN1CCC(c2ccccc2)CC1` (stereo not drawn) [Example 9], the “in vitro (H1)-receptor antagonism, % inhibition of histamine-induced ileum contractions after 30 seconds” value on histamine-(H1)-receptor (after 30 seconds) is listed as 35%. At histamine-(H1)-receptor (after 10 minutes), the “in vitro (H1)-receptor antagonism, % inhibition of histamine-induced ileum contractions after 10 minutes” value came out at 12%.

Turning to `COc1ccc2c(c1)SC(CCCCN1CCC(C(=O)c3ccc(F)cc3)CC1)C(=O)N2` (stereo not drawn) [Example 18, 7-methoxy-2-(4-[4-(4-fluorobenzoyl)-piperidin-1-yl]-butyl)-2H-1,4benzothiazine-3(4H)-one], the inhibition in vivo at 20 µmol/kg in data set [3] (setting [5]) worked out at 50%; in data set [4] (setting [6]) it was 90%.

As for `S=C1Nc2ccccc2OC1CCCN1CCC(Cc2ccccc2)CC1` (stereo not drawn) [Example 3, 2-[3-(4-benzylpiperidin-1-yl)-propyl]-2H-1,4-benzoxazine-3(4H)-thione], the inhibition at 10 µM was found to be 16% in data set [1] and 17% in data set [2]. Moreover, the Minimum toxic dose in the data set on mice came out at 300 mg/kg.

In the case of `O=C1Nc2ccccc2SC1CCCCN1CCC(O)(c2ccccc2)CC1` (stereo not drawn) [Example 11], the inhibition in vivo at 20 µmol/kg in data set [3] (setting [5]) was 20%; in data set [4] (setting [6]) it was 45%.

As for `O=C1Nc2ccccc2OC1CCCCN1CC=C(c2ccccc2)CC1` (stereo not drawn) [Example 12], the inhibition in vivo at 20 µmol/kg in data set [3] (setting [5]) amounted to 20%; in data set [4] (setting [6]), 35%.

Turning to `O=C(c1ccc(F)cc1)C1CCN(C2Sc3ccccc3NC2=O)CC1` (stereo not drawn) [Example 4, 2-[4-(4-fluorobenzoyl)-piperidin-1-yl]-2H-1,4-benzothiazine-3(4H)-one], the inhibition at 10 µM in data set [1] is 0%; in data set [2], 71%. The Minimum toxic dose in the data set on mice turned out to be 300 mg/kg.

For `N#CC1(c2ccccc2)CCN(CCCCC2Sc3ccccc3NC2=O)CC1` (stereo not drawn) [Example 15], the inhibition in vivo at 20 µmol/kg was 10% in data set [3] and 30% in data set [4]. In the data set with mice, this molecule registered a Minimum toxic dose of 300 mg/kg.

On to `O=C1Nc2ccc(Cl)cc2SC1CCCCN1CCC(Nc2nc3ccccc3n2Cc2ccc(F)cc2)CC1` (stereo not drawn) [Example 20], for which the figures for the inhibition in vivo at 20 µmol/kg in data set [3] (setting [5]) and in data set [4] (setting [6]) were 40% and 20%, respectively.

For `O=C1Nc2ccccc2SC1CCCCN1CC=C(c2ccccc2)CC1` (stereo not drawn) [Example 10, 2-[4-(4-phenyl-1,2,3,6-tetrahydropyridin-1-yl)-butyl]-2H-1,4-benzothiazine-3(4H)one], the inhibition at 10 µM in data set [1] is 37%; in data set [2], 30%. The values for the inhibition in vivo at 20 µmol/kg in data set [3] (setting [5]) and in data set [4] (setting [6]) were 30% and 55%, respectively. This molecule gave a Minimum toxic dose in the data set on mice of 300 mg/kg.

With `O=C1Nc2ccccc2SC1CCCCN1CCC(Nc2nc3ccccc3n2Cc2ccc(F)cc2)CC1` (stereo not drawn) [Example 1, 2-{4-[4-(N-(1-(4-fluorophenylmethyl)-1H-benzimidazol-2-yl)-amino)-piperidin-1-yl]-butyl}-2H-1,4-benzothiazine-3(4H)-one], the inhibition at 10 µM in data set [1] came to 87%; in data set [2], 52%. Besides, the inhibition in vivo at 20 µmol/kg in data set [3] (setting [5]) and in data set [4] (setting [6]) was 85% in each case.

One may read the inhibition as the share of the control response that was lost under treatment.
